{"source": "ChEMBL document CHEMBL3638470", "about": "“Substituted 5,6,7,8-tetrahydro-1,6-naphthyridines as factor XIa inhibitors” (2015)", "target": "Coagulation factor XI (Homo sapiens, UniProt P03951)", "sequence (P03951 19-387 limits assumed)": "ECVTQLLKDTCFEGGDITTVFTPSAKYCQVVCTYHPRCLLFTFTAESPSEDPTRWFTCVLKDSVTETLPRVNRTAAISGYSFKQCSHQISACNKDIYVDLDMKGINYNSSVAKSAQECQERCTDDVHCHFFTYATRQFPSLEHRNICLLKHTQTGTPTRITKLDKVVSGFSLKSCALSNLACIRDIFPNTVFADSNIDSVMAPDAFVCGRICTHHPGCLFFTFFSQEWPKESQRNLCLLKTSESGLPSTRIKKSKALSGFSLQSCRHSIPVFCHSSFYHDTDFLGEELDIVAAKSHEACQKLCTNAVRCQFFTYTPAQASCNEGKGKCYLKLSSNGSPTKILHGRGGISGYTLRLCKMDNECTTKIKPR", "sequence (P03951 388-625 limits assumed)": "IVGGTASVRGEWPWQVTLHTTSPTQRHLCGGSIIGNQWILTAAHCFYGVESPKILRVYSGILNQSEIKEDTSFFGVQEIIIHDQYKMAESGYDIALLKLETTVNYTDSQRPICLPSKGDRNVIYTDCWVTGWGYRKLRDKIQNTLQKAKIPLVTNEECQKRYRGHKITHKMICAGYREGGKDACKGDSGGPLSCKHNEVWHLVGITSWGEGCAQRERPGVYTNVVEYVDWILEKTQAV", "assay": "Inhibition Assay: The effectiveness of compounds of the present invention as inhibitors of the coagulation factors XIa, Vila, IXa, Xa, Xlla, plasma kallikrein or thrombin, can be determined using a relevant purified serine protease, respectively, and an appropriate synthetic substrate. The rate of hydrolysis of the chromogenic or fluorogenic substrate by the relevant serine protease was measured both in the absence and presence of compounds of the present invention. […] A decrease in the rate of absorbance or fluorescence change in the presence of inhibitor is indicative of enzyme inhibition. Such methods are known to one skilled in the art."}
{"smiles": "COC(=O)Nc1cccc(NC(=O)[C@@H]2c3ccccc3CCN2C(=O)/C=C/c2cc(Cl)ccc2-n2cnnn2)c1", "values": [{"measurement": "Ki", "value": 2.79, "unit": "µM"}]}
